The values that follow come from patent US4370338A (priority 1980, dated 1983).

Assay [1] deals with convulsions caused by strychnine. As to the kind of experiment: Strychnine convulsions in the rat, intraperitoneal. It is filed as in vivo, rat (male CD, Charles River). As to conditions: for ED50: Rattus norvegicus, ip, read-out: ED50 Strychnine (rat ip). On the procedure:
(§1) In the case of the male rat CD (Charles River) of 200-230 g, the convulsions are caused by the subcutaneous injection either of 500 mg/kg of isoniazide (INH) or of 1.5 mg/kg of a strychnine in the form of the sulfate. According to the protocol described by J. L. Costa et al. (Adv. Biochem., Pharmacol., 14, 113, 1975), the product to be tested is administered intraperitoneally 25 minutes after the isoniazide and 5 minutes before the strychnine. The number of animals having shown convulsions is registered during an observation period of 60 minutes after the injection of the isoniazide and 25 minutes after the injection of the strychnine.
(§2) The results obtained are collected in the following Table 1, wherein there are also given, for comparison, the results provided by two reference anticonvulsants (valproic acid, phenobarbital).

Assay [2] concerns convulsions caused by isoniazide (INH). Kind of assay: animal or person. It is filed as in vivo, rat (male CD, Charles River). The following applies: for ED50: 25 min, rat, ip, 25 minutes after 500 mg/kg sc isoniazide, dose protecting 50% of animals, read-out: ED50 I.N.H. (rat ip). On the procedure:
as §1

The subject of assay [3] is convulsions caused by supramaximal electric shock (ESM). As to the kind of experiment: Supramaximal electric shock (ESM) convulsions in the mouse, oral. The class given is in vivo, mouse (male CD1, Charles River). The following applies: 1.5 h, read-out: ED50 E.S.M. (mouse orally). The method, then:
These effects have been shown in vivo on the mouse and the rat. In the case of the mouse, the product is administered orally, in increasing doses, to batches of 10 male mice CD1 (Charles River) of 20-27 g, 90 minutes before exposure to a supramaximal electric shock (ESM), according to the method described by G. M. Everett and R. K. Richards (J. Pharmacol, Exptl. Therap. 81, 402, 1944).
as §2

A further assay concerns male mouse CD1. As to the kind of experiment: Test of the 4 plates (anxiolytic activity). The class given is in vivo, Charles River). As to conditions: 90 minutes before test, vs control group. On the procedure:
The anxiolytic activity of the product has been shown on the mouse, by use of the method called the test of the 4 plates, described by J. R. Boissier et al. (Europ. J. Pharmacol., 4, 145, 1968).
90 minutes after oral administration of the product, the animal undergoing the test (male mouse CD1 Charles River of 20-27 g) is placed in a box the base or floor of which is formed of four separated metal plates. Each time the animal passes from one plate to another, all the plates are electrified. The animal rapidly associates displacement and an electric shock and stays immovable on one of the plates. The number of crossings effected by the mouse in 2 minutes is thus determined.
The animals are divided into groups of 20 mice, the control group receiving only the vehicle. The results obtained for the treated groups are expressed by a percentage increase of the number of passages with respect to the control group and are collected in Table 2 below.

Like-named read-outs stand apart in the source and are kept apart here.

`CCCC(CCC)C(=O)O` [Valproic acid]: the “ED50 Strychnine (rat ip), result in words” value in assay [1] (rat, inactive at 600 (mg/kg)) is “inactive”. The ED50 in assay [2] amounted to 180 mg/kg; in assay [3] (Mus musculus, po), 450 mg/kg.
For the compound `CCC1(c2ccccc2)C(=O)NC(=O)NC1=O` [Phenobarbital], the ED50 in assay [1] is 33 mg/kg; in assay [2], 16 mg/kg; in assay [3] (Mus musculus, po), 26 mg/kg.
`Nc1nc2ccc(OC(F)(F)F)cc2s1` [2-Amino-6-trifluoromethoxy-benzothiazole]: the ED50 came out at 8.4 mg/kg in assay [1]; 2.2 mg/kg in assay [2]; 10 mg/kg in assay [3] (mouse, oral, 90 minutes before supramaximal electric shock, dose protecting 50% of animals). The “doses inhibiting INH convulsions, times less than those necessary to inhibit strychnine convulsions” value in assay [2] (INH versus strychnine convulsions) was determined as 4 times. In addition, the “% increase of the number of passages” value came to 50% in the assay with male mouse CD1 (5 mg/kg orally); 61% in the assay with male mouse CD1 (10 mg/kg orally); 100% in the assay with male mouse CD1 (20 mg/kg orally); 162% in the assay with male mouse CD1 (25 mg/kg orally (first line printed 25)); 215% with male mouse CD1 (25 mg/kg orally (second line printed 25)).

The ED50 is the midpoint of the dose-response relation.
